Measured values taken from patent publication US8835429B2, “Pyrimidine compounds, their use as mTOR kinase and Pl3 kinase inhibitors, and their syntheses” (Wyeth LLC, priority 2009, dated 2014).

Assays:
[1] = target: PI3K-alpha (Homo sapiens, UniProt P42336); assay: PI3K-alpha fluorescence polarization assay; format: biochemical; conditions: 20 μM PIP2, 25 μM ATP; read-out: PI3Kα IC50
Method in brief: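 PIP2 (diC8) and ATP substrate with PI3K in 20 mM HEPES pH 7.5, 2 mM MgCl2, 0.05% CHAPS, 0.01% βME; 1% DMSO final; 30–60 min reaction. Stopped with EDTA plus GST-GRP (70 nM) and TAMRA probe (10 nM); FP (mP) read after 30–90 min, with no-enzyme controls.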

[2] = target: PI3K-gamma (Homo sapiens, UniProt P48736); assay: PI3K-gamma fluorescence polarization assay; format: biochemical; conditions: 20 μM PIP2, 25 μM ATP; read-out: PI3Kγ IC50
Experimental: The reaction buffer was 20 mM HEPES, pH 7.5, 2 mM MgCl2, 0.05% CHAPS; and 0.01% βME (added fresh). The stop/detection buffer was 100 mM HEPES, pH 7.5, 4 mM EDTA, 0.05% CHAPS; ATP 20 mM in water; PIP2 (diC8, Echelon, Salt Lake City Utah cat #P-4508) 1 mM in water (MW=856.5). The GST-GRP was 1.75 mg/mL or 1.4 mg/mL in 10% glycerol. The red detector (TAMRA) was 2.5 μM. Nunc 384-well black polypropylene fluorescent plates were used for PI3K assays.
The assay is run by placing 5 μL of diluted enzyme per well, then 5 μL of diluted compound (or 9.5 μL enzyme then 0.5 μL compound in DMSO) is added and mixed. Then, 10 μL substrate is added to start the reaction. The samples are incubated 30-60 minutes, then the reaction is stopped by adding 20 μL stop/detector mix. PI3K is diluted with reaction buffer (e.g., 5 μL or 7.5 μL PI3K into 620 μL reaction buffer), and 5 μL of diluted enzyme is used per well. A 5 μL portion of reaction buffer or of drug diluted in buffer (e.g., 4 μL/100 so final DMSO is 1% in reaction) is added to each. Pipetting up and down mixes the samples. Alternatively, the enzyme can be diluted to 1215 μL. In this case 9.8 μL is added per well and 0.2 μL compound is added in DMSO.
To prepare 1 mL of substrate solution, 955 μL reaction buffer, 40 μL PIP2, and 2.5 μL ATP are mixed. 10 μL of substrate is added to each well to start the reaction. […] The stop/detector mix is prepared by mixing 4 μL red detector and 1.6 μL or 2.0 μL GST-GRP with 1 mL stop buffer, which results in 10 nM probe and 70 nM GST-GRP. 20 μL of the stop/detector mix is added to each well to stop the reaction. The plates are read after 30-90 minutes keeping the red probe solutions dark. For the zero time point, stop/detector mix is added to the enzyme just before adding substrate. For an extra control, stop/detector mix is added to buffer (no enzyme) and substrate or to just buffer (no substrate). […] The recommended reaction has 0.06 μL per 20 μL (0.015 μg/20 μL) or 0.01125 μg/15 μL or 0.75 μg/mL.
Plates are read on machines with filters for TAMRA. The units are mP with no enzyme controls reading app 190-220 mP units. Fully active enzyme reduces fluorescence polarization down to 70-100 mP after 30 minutes. An active compound raises the mP values halfway to control or to 120-150 mP units.

[3] = system: LNCap; assay: In vitro cell growth assay (MTS), LNCap; format: cell-based; conditions: LNCaP, 72 h, human prostate line, three days after drug treatment
[4] = system: MDA468; assay: In vitro cell growth assay (MTS), MDA468; format: cell-based; conditions: 72 h, human breast line MDA468, three days after drug treatment, read-out: MDA IC50
[5] = target: mTOR (Homo sapiens, UniProt P42345); assay: mTOR enzyme assay (DELFIA, purified FLAG-TOR, His6-S6K substrate); format: biochemical; design: FLAG; conditions: 100 μM ATP, 2 hours
Chain of mTOR (P42345 1360-2549 limits assumed): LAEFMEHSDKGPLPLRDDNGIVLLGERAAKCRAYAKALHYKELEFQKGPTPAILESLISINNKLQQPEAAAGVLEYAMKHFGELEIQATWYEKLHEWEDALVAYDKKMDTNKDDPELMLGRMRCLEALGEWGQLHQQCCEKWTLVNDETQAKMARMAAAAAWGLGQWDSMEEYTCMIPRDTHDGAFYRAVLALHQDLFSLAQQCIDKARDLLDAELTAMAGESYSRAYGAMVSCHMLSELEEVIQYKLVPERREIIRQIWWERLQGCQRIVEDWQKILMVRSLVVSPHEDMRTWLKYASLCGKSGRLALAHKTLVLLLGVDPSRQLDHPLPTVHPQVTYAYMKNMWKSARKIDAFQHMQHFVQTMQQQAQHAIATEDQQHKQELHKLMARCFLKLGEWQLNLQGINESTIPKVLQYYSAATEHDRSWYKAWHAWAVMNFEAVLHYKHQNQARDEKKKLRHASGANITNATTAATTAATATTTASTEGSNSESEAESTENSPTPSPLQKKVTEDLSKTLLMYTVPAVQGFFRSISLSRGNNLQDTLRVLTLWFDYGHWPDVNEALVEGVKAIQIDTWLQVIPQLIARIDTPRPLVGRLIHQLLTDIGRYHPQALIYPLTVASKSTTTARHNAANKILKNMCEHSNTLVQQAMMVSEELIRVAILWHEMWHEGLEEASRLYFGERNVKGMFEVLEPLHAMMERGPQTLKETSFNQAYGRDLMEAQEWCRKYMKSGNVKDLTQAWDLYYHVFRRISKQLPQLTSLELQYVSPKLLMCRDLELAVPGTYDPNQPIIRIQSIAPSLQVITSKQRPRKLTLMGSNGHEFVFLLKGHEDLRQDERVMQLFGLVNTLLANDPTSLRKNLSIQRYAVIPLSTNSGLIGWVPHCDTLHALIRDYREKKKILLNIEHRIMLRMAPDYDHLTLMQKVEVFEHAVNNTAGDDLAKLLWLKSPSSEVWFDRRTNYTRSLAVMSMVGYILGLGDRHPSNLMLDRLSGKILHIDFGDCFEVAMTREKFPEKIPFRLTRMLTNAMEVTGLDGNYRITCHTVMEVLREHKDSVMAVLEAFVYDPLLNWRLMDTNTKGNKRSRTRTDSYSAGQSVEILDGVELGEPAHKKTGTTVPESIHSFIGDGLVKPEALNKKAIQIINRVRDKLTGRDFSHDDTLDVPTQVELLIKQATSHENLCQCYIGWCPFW

Chain of PI3K-alpha (P42336 whole entry, species assumed): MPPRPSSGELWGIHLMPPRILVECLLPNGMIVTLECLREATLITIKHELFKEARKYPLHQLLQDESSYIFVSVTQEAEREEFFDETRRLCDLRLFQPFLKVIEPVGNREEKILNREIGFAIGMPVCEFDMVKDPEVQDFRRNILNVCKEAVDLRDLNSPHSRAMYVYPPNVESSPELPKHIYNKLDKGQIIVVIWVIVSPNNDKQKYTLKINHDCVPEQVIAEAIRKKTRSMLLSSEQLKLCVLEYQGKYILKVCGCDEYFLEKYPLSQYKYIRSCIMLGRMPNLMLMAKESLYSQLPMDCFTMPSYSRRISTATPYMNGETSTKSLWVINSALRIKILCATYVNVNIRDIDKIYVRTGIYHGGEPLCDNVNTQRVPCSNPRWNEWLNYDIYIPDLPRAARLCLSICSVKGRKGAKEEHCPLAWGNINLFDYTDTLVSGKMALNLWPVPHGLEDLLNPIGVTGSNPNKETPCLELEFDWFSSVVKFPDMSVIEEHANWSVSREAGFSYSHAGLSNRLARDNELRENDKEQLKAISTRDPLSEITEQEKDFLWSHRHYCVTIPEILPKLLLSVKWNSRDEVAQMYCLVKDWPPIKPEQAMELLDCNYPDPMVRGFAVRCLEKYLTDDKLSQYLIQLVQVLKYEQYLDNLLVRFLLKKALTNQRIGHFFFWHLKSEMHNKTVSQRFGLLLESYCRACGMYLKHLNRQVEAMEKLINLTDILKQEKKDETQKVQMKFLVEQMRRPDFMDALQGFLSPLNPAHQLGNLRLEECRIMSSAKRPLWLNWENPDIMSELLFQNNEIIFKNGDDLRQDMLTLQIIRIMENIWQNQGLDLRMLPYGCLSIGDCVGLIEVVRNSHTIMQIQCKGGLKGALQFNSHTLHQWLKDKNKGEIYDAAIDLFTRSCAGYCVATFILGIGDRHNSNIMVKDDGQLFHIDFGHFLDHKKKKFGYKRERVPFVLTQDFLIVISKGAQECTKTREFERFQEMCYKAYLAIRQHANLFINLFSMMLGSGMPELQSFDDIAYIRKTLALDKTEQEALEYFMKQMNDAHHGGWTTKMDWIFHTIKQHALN
Chain of PI3K-alpha (P27986 whole entry partner, species assumed): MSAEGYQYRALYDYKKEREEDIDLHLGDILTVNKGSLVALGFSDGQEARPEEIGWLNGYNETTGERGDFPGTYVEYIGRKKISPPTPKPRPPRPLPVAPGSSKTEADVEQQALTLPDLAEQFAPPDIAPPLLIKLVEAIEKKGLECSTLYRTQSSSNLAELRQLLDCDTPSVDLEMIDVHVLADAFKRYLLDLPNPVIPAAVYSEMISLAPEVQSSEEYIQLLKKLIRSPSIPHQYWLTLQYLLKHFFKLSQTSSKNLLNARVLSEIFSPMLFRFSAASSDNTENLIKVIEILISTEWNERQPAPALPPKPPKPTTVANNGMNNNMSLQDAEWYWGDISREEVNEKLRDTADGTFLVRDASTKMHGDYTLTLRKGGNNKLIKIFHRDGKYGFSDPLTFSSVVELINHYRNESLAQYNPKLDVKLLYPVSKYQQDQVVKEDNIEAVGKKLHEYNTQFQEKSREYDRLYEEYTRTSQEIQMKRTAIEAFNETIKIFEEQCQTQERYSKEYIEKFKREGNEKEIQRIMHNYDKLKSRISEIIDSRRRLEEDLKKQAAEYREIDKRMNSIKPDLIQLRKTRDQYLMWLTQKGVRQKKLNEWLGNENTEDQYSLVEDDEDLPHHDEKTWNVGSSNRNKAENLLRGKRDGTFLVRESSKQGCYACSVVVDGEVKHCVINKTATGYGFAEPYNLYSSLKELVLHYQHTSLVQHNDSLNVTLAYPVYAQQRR
Chain of PI3K-gamma (P48736 whole entry, species assumed): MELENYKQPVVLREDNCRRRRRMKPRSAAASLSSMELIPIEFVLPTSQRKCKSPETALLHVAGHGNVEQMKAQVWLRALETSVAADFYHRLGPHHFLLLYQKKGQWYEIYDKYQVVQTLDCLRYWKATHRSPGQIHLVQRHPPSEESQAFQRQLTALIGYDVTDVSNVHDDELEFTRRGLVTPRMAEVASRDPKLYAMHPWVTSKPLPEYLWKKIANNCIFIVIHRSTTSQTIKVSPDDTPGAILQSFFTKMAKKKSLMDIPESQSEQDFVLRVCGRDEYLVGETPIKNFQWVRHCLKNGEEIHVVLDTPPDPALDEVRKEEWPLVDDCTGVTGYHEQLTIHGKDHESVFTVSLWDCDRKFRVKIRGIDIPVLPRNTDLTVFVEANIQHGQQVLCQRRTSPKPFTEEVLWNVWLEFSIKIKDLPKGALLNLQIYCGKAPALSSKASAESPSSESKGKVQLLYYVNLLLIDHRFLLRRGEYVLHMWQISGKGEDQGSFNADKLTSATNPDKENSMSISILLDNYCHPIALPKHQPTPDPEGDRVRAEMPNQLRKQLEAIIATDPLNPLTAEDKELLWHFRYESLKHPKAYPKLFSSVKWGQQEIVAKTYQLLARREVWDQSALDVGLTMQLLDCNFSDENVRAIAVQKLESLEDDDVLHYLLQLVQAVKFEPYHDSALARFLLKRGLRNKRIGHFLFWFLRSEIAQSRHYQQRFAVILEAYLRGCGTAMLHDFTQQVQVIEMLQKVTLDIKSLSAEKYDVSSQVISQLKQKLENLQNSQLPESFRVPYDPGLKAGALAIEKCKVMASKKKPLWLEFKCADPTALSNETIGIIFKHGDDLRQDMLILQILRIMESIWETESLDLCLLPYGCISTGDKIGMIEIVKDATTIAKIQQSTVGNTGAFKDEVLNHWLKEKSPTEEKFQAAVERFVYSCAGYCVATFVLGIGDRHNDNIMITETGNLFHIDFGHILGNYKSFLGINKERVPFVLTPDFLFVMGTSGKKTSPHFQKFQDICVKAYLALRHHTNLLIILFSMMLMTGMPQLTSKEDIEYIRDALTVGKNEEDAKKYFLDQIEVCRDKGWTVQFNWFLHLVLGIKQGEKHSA

Compound | IC50 [1] | IC50 [2] | IC50 [3] | IC50 [4] | IC50 [5]
C[C@@H]1COCCN1c1cc(N2C3CCC2COC3)nc(-c2ccc(NC(=O)Nc3cccnc3)cc2)n1 [1-(4-{4-[(3R)-3-methylmorpholin-4-yl]-6-(3-oxa-8-azabicyclo[3.2.1]oct-8-yl)pyrimidin-2-yl}phenyl)-3-pyridin-3-ylurea] | 1060 nM | 7470 nM | 20 nM | 80 nM | 0.77 nM
C[C@@H]1COCCN1c1cc(N2C3CCC2COC3)nc(-c2ccc(NC(=O)Nc3ccncc3)cc2)n1 [1-(4-{4-[(3R)-3-methylmorpholin-4-yl]-6-(3-oxa-8-azabicyclo[3.2.1]oct-8-yl)pyrimidin-2-yl}phenyl)-3-pyridin-4-ylurea] | 314 nM | 778 nM | 1 nM | 5 nM | 0.645 nM
C[C@@H]1COCCN1c1cc(N2C3CCC2COC3)nc(-c2ccc(NC(=O)Nc3ccc(C(=O)N4CCN(C)CC4)cc3)cc2)n1 [1-(4-{4-[(3R)-3-methylmorpholin-4-yl]-6-(3-oxa-8-azabicyclo[3.2.1]oct-8-yl)pyrimidin-2-yl}phenyl)-3-{4-[(4-methylpiperazin-1-yl)carbonyl]phenyl}urea] | 78 nM | 1130 nM | ≤ 0.8 nM | 0.8 nM | 0.75 nM
C[C@@H]1COCCN1c1cc(N2C3CCC2COC3)nc(-c2ccc(NC(=O)Nc3ccc(CN4CCN(C)CC4)cc3)cc2)n1 [1-(4-{4-[(3R)-3-methylmorpholin-4-yl]-6-(3-oxa-8-azabicyclo[3.2.1]oct-8-yl)pyrimidin-2-yl}phenyl)-3-{4-[(4-methylpiperazin-1-yl)methyl]phenyl}urea] | 1300 nM | 8480 nM | 6 nM | 12 nM | 1.2 nM
CCNC(=O)Nc1ccc(-c2nc(CN(C)C)cc(N3C4CCC3COC4)n2)cc1 [1-(4-{4-[(dimethylamino)methyl]-6-(3-oxa-8-azabicyclo[3.2.1]oct-8-yl)pyrimidin-2-yl}phenyl)-3-ethylurea] | 6240 nM | 12600 nM | 1100 nM | 3000 nM | 40 nM
CNC(=O)Nc1ccc(-c2nc(CN(C)C)cc(N3C4CCC3COC4)n2)cc1 [1-(4-{4-[(dimethylamino)methyl]-6-(3-oxa-8-azabicyclo[3.2.1]oct-8-yl)pyrimidin-2-yl}phenyl)-3-methylurea] | 8000 nM | > 10000 nM | 3600 nM | 7000 nM | 77 nM
CN(C)Cc1cc(N2C3CCC2COC3)nc(-c2ccc(NC(=O)Nc3cccnc3)cc2)n1 [1-(4-{4-[(dimethylamino)methyl]-6-(3-oxa-8-azabicyclo[3.2.1]oct-8-yl)pyrimidin-2-yl}phenyl)-3-pyridin-3-ylurea] | 3160 nM | > 10000 nM | 600 nM | 1000 nM | 10.8 nM
CC(C)N1CCN(C(=O)c2ccc(NC(=O)Nc3ccc(-c4nc(N5C6CCC5COC6)cc(N5CCOC[C@H]5C)n4)cc3)cc2)CC1 [1-(4-{[4-(1-methylethyl)piperazin-1-yl]carbonyl}phenyl)-3-(4-{4-[(3R)-3-methylmorpholin-4-yl]-6-(3-oxa-8-azabicyclo[3.2.1]oct-8-yl)pyrimidin-2-yl}phenyl)urea] | 123 nM | 1200 nM | ≤ 0.8 nM | 0.8 nM | 0.6 nM
CC(C)N1CCN(C(=O)c2ccc(NC(=O)Nc3ccc(-c4nc(C5CCOCC5)cc(N5C6CCC5COC6)n4)cc3)cc2)CC1 [1-(4-{[4-(1-methylethyl)piperazin-1-yl]carbonyl}phenyl)-3-{4-[4-(3-oxa-8-azabicyclo[3.2.1]oct-8-yl)-6-(tetrahydro-2H-pyran-4-yl)pyrimidin-2-yl]phenyl}urea] | 353 nM | 3210 nM | ≤ 0.8 nM | 0.8 nM | 0.295 nM
O=C(Nc1ccc(-c2nc(N3C4CCC3COC4)cc(N3C4CCC3COC4)n2)cc1)Nc1cccnc1 [1-[4-(4,6-di-3-oxa-8-azabicyclo[3.2.1]oct-8-ylpyrimidin-2-yl)phenyl]-3-pyridin-3-ylurea] | 1130 nM | 4490 nM | 0.8 nM | 5 nM | 0.58 nM
CN1CCN(c2ccc(NC(=O)Nc3ccc(-c4nc(N5C6CCC5COC6)cc(N5C[C@H]6C[C@@H]5CO6)n4)cc3)cc2)CC1 [1-[4-(4-methylpiperazin-1-yl)phenyl]-3-(4-{4-[(1R,4R)-2-oxa-5-azabicyclo[2.2.1]hept-5-yl]-6-(3-oxa-8-azabicyclo[3.2.1]oct-8-yl)pyrimidin-2-yl}phenyl)urea] | 2090 nM | 8710 nM | 40 nM | 48 nM | 7.55 nM
CN1CCN(c2ccc(NC(=O)Nc3ccc(-c4nc(N5C6CCC5COC6)cc(N5C[C@@H]6C[C@H]5CO6)n4)cc3)cc2)CC1 [1-[4-(4-methylpiperazin-1-yl)phenyl]-3-(4-{4-[(1S,4S)-2-oxa-5-azabicyclo[2.2.1]hept-5-yl]-6-(3-oxa-8-azabicyclo[3.2.1]oct-8-yl)pyrimidin-2-yl}phenyl)urea] | 1780 nM | ≥ 10000 nM | 10 nM | 18 nM | 9.75 nM
CN1CCN(c2ccc(NC(=O)Nc3ccc(-c4nc(C5CCOCC5)cc(N5C6CCC5COC6)n4)cc3)cc2)CC1 [1-[4-(4-methylpiperazin-1-yl)phenyl]-3-{4-[4-(3-oxa-8-azabicyclo[3.2.1]oct-8-yl)-6-(tetrahydro-2H-pyran-4-yl)pyrimidin-2-yl]phenyl}urea] | 1060 nM | 4730 nM | ≤ 0.8 nM | 4 nM | 0.855 nM
CN1CCN(c2ccc(NC(=O)Nc3ccc(-c4nc(NC5CCOCC5)cc(N5C6CCC5COC6)n4)cc3)cc2)CC1 [1-[4-(4-methylpiperazin-1-yl)phenyl]-3-{4-[4-(3-oxa-8-azabicyclo[3.2.1]oct-8-yl)-6-(tetrahydro-2H-pyran-4-ylamino)pyrimidin-2-yl]phenyl}urea] | 2260 nM | 9230 nM | 7 nM | 10 nM | 7.5 nM
CN1CCN(c2ccc(NC(=O)Nc3ccc(-c4nc(NCCS(C)(=O)=O)cc(N5C6CCC5COC6)n4)cc3)cc2)CC1 [1-[4-(4-methylpiperazin-1-yl)phenyl]-3-{4-[4-{[2-(methylsulfonyl)ethyl]amino}-6-(3-oxa-8-azabicyclo[3.2.1]oct-8-yl)pyrimidin-2-yl]phenyl}urea] | 1840 nM | ≥ 10000 nM | 17 nM | 19 nM | 14.5 nM
CN1CCN(c2ccc(NC(=O)Nc3ccc(-c4nc(N5C6CCC5COC6)c(Cl)c(N5C6CCC5COC6)n4)cc3)cc2)CC1 [1-[4-(5-chloro-4,6-di-3-oxa-8-azabicyclo[3.2.1]oct-8-ylpyrimidin-2-yl)phenyl]-3-[4-(4-methylpiperazin-1-yl)phenyl]urea] | 998 nM | 1020 nM | 65 nM | 210 nM | 0.505 nM
O=C(Nc1ccc(-c2nc(N3C4CCC3COC4)c(Cl)c(N3C4CCC3COC4)n2)cc1)Nc1cccnc1 [1-[4-(5-chloro-4,6-di-3-oxa-8-azabicyclo[3.2.1]oct-8-ylpyrimidin-2-yl)phenyl]-3-pyridin-3-ylurea] | 922 nM | 932 nM | 48 nM | 220 nM | 0.655 nM
